From publication PMC10767055, “Different binding modalities of quercetin to inositol-requiring enzyme 1 of S. cerevisiae and human lead to opposite regulation” (Communications Chemistry, 2024) come the findings set out here.

The target of test [1] is T1, human IRE1 (hIRE1, IRE1α) (Homo sapiens, UniProt O75460).
T1 construct: gene ERN1; aa 465-977, His & GST Tag
The test is described as follows: MST displacement of fluorescent Kinase Tracer […] (positive control). In kind it is binding.

Test [2] has as its target T1, human IRE1 (hIRE1, IRE1α). The test is described as follows: in vitro RNase cleavage assay, recombinant IRE1, fluorescence-quenched mini XBP1 RNA probe. In kind it is biochemical.

T1 sequence (O75460 465-977): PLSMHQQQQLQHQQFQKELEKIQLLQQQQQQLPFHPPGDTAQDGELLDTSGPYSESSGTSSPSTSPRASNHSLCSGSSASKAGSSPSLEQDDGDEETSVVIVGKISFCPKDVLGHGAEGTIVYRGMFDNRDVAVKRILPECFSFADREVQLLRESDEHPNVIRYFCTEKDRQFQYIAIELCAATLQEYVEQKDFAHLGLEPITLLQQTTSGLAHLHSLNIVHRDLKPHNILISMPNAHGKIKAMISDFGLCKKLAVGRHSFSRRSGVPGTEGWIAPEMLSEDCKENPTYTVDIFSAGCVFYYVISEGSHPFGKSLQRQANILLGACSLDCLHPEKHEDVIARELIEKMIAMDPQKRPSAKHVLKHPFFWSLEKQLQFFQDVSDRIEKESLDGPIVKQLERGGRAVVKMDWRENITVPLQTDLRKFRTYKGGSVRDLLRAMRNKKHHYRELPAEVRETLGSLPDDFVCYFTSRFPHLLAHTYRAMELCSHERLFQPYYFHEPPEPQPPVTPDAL

For orientation: IC50 means the concentration that gives 50% inhibition. As for `Cc1ccc2c(NS(=O)(=O)c3ccccc3Cl)cccc2c1Oc1ncccc1-c1ccnc(N[C@H]2CCCNC2)n1` [KIRA8], the IC50 in test [1] worked out at 0.073 ± 0.005 µM. Consider `C[C@@H]1O[C@@H](Oc2c(-c3ccc(O)c(O)c3)oc3cc(O)cc(O)c3c2=O)[C@H](O)[C@H](O)[C@H]1O` [Qi, Quercitrin], for which the concentration for half-maximal inhibition (IC50) in test [2] is 0.226 ± 0.07 µM. The same measure, in the same setting: as for `O=c1c(O)c(-c2ccc(O)c(O)c2)oc2cc(O)cc(O)c12` [Qe, Quercetin], the figure is 0.272 ± 0.15 µM.
